Patent US4625016A, “Collagen inhibiting compositions and processes for manufacturing and using same” (University of Medicine and Dentistry of New Jersey, priority 1983, dated 1986)

Experiments:
[1] = tested on: normal human skin fibroblasts; experiment: Attachment and growth of human skin fibroblasts in plastic culture flasks (assay of collagen synthesis); type: cell-based
From the text: The principle of the test system is that when collagen-producing cells, such as normal skin fibroblasts are introduced into a plastic flask containing a nutrient medium, the cells attach to the surface of the flask and grow. However, firm attachment of normal fibroblasts to the surface of the flask requires that the cells first synthesize a "pad" comprised of collagen fibers and several other materials through which the collagen producing cells attach to the plastic surface. If synthesis of normal collagen fibers is prevented, the collagen-producing cells, such as the normal skin fibroblasts, will not attach and therefore will not grow. […] The manner in which cis-4-hydroxy-L-proline produces these effects has been disclosed in 336 Biochimica et Biophysica Acta 234, (1974); 174 Archives of Biochemistry and Biophysics 381 (1976); 226 Nature 63 (1977); and 272 Nature 622 (1978).
None of the three polymeric compositions are soluble in water and are consequently dissolved in 50% acetic acid and water. The solution is placed dropwise on a microscopic coverslip and the solvent evaporated with warm air from a hair dryer. The coverslip, coated with the composition, is then placed in a plastic culture flask (75 cm^2; Falcon). From 5×10^5 to 10.5×10^5 normal human fibroblasts in 2 ml of cell culture medium are added to the flask. The flask is incubated at 37° C. in 5% carbon dioxide and 95% air for 3 to 5 days, and the number of cells in the flask counted. Control sample contained microscopic coverslips treated with an equal volume of solvent and air-dried.

KB cells = conditions: as disclosed in 266 Nature 63 (1977); cited from earlier work

O=C(O)[C@@H]1C[C@H](O)CN1 [cis-4-Hydroxy-L-proline, cis-4-hydroxy-L-proline]
Cells per flask, Final ([1]; Expt. 1, dosage level 250 μg/ml, initial 5.0 × 10^5, 3 to 5 days, None: 67): < 1 × 10^5
Cells per flask, Final ([1]; Expt. 2, dosage level 100 μg/ml, initial 10.3 × 10^5, None: 98): 2.2 × 10^5
Cells per flask, Final ([1]; Expt. 3, dosage level 50 μg/ml, initial 7.0 × 10^5, None: 56): 12 × 10^5
Cells per flask, Final ([1]; Expt. 3, dosage level 150 μg/ml, initial 7.0 × 10^5, None: 56): 1.3 × 10^5
Attachment and growth of normal fibroblasts (in words) ([1]; no dose stated): prevents attachment and growth
Growth of cells which do not produce collagen (in words) (KB cells): not inhibited
